Assay results published in publication PMC10150366, “Discovery of an In Vivo Chemical Probe for BCL6 Inhibition by Optimization of Tricyclic Quinolinones” (Journal of Medicinal Chemistry, 2023).
Where two headings read alike, the source gives them in different places.

How the values were obtained:
[1] = molecular target: INSR (Homo sapiens, UniProt P06213); assay: SAFETYscan Kinases Binding INSR Inhibitor
From the text: (§1) Supplement jm3c00155_si_002.xlsx, sheet "SAFETYScan" | column: RC50 (uM); Max Response

[2] = molecular target: HRH2 (Homo sapiens, UniProt P25021); assay: SAFETYscan cAMP HRH2 Antagonist; format: cell-based
HRH2, sequence (P25021 whole entry): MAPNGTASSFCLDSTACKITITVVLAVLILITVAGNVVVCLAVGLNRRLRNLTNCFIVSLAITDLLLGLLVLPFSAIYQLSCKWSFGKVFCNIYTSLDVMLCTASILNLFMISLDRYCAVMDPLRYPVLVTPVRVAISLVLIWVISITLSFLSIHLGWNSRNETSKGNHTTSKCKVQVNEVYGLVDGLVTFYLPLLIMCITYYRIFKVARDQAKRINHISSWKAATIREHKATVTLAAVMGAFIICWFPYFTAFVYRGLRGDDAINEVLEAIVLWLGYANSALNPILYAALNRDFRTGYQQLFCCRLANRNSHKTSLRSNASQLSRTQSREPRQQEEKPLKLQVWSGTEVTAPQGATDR
From the text: (§2) Supplement jm3c00155_si_002.xlsx, sheet "SAFETYScan" | column: RC50 (uM); Hill; Max Response

[3] = molecular target: human BCL6 BTB domain (Homo sapiens, UniProt P41182); assay: BCL6 TR-FRET assay; format: binding
Procedure: 1. Supplementary experimental: protein production, purification and crystallography 1.1 BCL6 constructs used for assays and crystallography […]
cleavage site. For the TR-FRET assay, the Trx-6His-HRV3C-BCL6 protein construct was used without cleaving the tag, as a 6His was needed to bind to the anti-6His-Terbium antibody. […]
For both plasmid constructs described above, transformed BL21-AI E. coli cells were grown in LB media […]
Expression was carried out at 18 °C for 18 hours. Cells were harvested by centrifugation (5500 g for 30 minutes at 4 °C) and stored at -80 °C.
Cells were re-suspended in a buffer composed of 20 mM Tris pH 8, 250 mM NaCl, 1 mM MgCl2, 0.5 mM […]
lysed by sonication followed by centrifugation at 21,000 g for 45 minutes at 4 °C. […]
ResourceQ and gel filtration using a HiLoad 26/60 Superdex75 column in a buffer containing 20 mM HEPES […]
The final protein was assessed for purity and molar mass by SDS-PAGE and high-resolution mass spectrometry, respectively.
For the uncleaved Trx-6His-HRV3C-BCL6 protein construct to be used in TR-FRET, the protein was directly eluted from the HisTrap FF column without HRV-3C treatment, and submitted to Superdex75 gel filtration […]
Test compounds in DMSO or DMSO alone […]
concentration in 0.7% v/v DMSO final. […]

[4] = molecular target: OPRK1 (Homo sapiens, UniProt P41145); assay: SAFETYscan cAMP OPRK1 Antagonist; format: cell-based
From the text: as §1

[5] = molecular target: CNR1 (Homo sapiens, UniProt P21554); assay: SAFETYscan cAMP CNR1 Agonist; format: cell-based
From the text: as §1

[6] = molecular target: ADRB1 (Homo sapiens, UniProt P08588); assay: SAFETYscan cAMP ADRB1 Antagonist; format: cell-based
ADRB1, sequence (P08588 whole entry): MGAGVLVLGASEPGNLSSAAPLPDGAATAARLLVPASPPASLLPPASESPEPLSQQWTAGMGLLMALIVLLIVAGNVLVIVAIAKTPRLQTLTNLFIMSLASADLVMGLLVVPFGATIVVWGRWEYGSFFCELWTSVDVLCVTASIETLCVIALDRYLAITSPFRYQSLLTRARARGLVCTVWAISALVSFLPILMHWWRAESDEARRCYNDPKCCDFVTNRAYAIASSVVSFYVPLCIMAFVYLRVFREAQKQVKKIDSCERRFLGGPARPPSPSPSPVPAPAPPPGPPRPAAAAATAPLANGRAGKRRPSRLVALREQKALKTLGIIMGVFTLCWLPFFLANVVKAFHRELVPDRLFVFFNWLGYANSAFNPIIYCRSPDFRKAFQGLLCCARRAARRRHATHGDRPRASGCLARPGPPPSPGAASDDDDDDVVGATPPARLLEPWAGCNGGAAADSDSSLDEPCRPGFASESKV
From the text: as §2

[7] = molecular target: T1, HTR3A (Homo sapiens, UniProt P46098); assay: SAFETYscan Ion Channel HTR3A Blocker; format: cell-based
T1 sequence (P46098 24-478): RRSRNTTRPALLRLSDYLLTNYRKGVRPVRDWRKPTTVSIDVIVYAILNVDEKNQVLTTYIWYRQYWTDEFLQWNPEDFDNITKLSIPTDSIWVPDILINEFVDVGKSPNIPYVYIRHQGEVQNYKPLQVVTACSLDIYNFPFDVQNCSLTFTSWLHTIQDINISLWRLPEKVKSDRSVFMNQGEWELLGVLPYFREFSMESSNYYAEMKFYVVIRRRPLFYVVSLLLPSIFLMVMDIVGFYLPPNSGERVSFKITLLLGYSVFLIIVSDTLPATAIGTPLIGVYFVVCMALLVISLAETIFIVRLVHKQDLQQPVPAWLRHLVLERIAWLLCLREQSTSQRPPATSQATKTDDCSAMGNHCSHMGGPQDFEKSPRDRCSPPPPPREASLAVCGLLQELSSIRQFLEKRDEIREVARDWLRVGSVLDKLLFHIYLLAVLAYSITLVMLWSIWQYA
From the text: as §1

[8] = molecular target: DRD1 (Homo sapiens, UniProt P21728); assay: SAFETYscan cAMP DRD1 Antagonist; format: cell-based
DRD1, sequence (P21728 whole entry): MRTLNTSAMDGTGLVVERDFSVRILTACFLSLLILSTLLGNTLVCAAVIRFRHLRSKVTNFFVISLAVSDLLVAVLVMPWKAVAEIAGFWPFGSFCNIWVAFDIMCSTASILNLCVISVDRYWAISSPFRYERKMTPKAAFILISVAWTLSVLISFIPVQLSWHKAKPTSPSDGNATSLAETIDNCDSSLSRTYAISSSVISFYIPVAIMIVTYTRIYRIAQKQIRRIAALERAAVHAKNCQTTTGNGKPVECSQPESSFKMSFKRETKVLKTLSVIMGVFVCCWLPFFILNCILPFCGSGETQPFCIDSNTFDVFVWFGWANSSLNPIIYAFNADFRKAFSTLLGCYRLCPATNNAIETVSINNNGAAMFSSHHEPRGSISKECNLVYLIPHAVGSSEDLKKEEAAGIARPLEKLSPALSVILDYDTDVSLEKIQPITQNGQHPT
From the text: as §2

[9] = molecular target: T2, CHRM2 (Homo sapiens, UniProt P08172); assay: SAFETYscan cAMP CHRM2 Antagonist; format: cell-based
T2 sequence (P08172 1-466): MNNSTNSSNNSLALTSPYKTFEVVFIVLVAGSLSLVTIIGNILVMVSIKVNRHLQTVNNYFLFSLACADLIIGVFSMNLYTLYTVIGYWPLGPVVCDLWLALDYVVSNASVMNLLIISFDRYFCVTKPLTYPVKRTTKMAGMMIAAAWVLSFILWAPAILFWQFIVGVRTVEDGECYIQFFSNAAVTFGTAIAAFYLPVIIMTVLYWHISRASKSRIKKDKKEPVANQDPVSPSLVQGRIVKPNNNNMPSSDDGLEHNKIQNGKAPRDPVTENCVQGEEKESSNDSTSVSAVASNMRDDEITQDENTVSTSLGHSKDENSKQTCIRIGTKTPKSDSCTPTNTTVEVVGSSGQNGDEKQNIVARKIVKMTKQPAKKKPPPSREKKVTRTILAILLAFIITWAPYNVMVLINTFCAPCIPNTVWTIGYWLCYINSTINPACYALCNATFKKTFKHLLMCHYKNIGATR
From the text: as §1

[10] = molecular target: CNR2 (Homo sapiens, UniProt P34972); assay: SAFETYscan cAMP CNR2 Antagonist; format: cell-based
CNR2, sequence (P34972 whole entry): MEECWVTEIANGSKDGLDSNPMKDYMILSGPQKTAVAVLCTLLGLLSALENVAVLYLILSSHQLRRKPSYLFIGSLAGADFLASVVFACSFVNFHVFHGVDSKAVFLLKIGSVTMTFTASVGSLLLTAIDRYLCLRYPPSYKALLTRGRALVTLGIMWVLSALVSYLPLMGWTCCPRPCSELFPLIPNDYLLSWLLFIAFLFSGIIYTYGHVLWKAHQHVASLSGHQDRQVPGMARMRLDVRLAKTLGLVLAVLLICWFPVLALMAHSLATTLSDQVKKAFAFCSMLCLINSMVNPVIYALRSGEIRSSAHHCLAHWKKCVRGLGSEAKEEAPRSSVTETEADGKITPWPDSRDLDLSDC
From the text: as §1

[11] = molecular target: NMDAR (1A/2B) (Homo sapiens, UniProt Q05586+Q13224); assay: SAFETYscan Ion Channel NMDAR (1A/2B) Blocker; format: cell-based
From the text: as §1

[12] = molecular target: CHRM3 (Homo sapiens, UniProt P20309); assay: SAFETYscan Calcium Flux CHRM3 Antagonist; format: cell-based
CHRM3, sequence (P20309 whole entry): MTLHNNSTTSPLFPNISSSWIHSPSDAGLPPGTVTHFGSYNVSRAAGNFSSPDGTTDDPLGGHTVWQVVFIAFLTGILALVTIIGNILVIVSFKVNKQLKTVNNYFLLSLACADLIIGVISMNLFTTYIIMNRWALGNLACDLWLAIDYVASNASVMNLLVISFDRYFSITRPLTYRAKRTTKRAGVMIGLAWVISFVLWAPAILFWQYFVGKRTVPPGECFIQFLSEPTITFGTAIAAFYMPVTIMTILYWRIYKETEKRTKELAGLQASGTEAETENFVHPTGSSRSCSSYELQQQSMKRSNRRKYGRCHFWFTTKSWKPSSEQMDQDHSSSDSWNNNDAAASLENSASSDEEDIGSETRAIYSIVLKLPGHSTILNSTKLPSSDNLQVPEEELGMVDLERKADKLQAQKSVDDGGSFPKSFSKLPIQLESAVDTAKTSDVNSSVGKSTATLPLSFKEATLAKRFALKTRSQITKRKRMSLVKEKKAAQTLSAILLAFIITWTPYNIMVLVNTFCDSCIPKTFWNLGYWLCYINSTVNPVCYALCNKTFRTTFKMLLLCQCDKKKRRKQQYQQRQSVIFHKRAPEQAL
From the text: as §1

[13] = molecular target: VEGFR2 (Homo sapiens, UniProt P35968); assay: SAFETYscan Kinases Binding VEGFR2 Inhibitor
From the text: as §1

[14] = molecular target: nAChR(a4/b2) (Homo sapiens, UniProt P17787+P43681); assay: SAFETYscan Ion Channel nAChR(a4/b2) Blocker; format: cell-based
nAChR(a4/b2), sequence (P43681 29-627 limits assumed): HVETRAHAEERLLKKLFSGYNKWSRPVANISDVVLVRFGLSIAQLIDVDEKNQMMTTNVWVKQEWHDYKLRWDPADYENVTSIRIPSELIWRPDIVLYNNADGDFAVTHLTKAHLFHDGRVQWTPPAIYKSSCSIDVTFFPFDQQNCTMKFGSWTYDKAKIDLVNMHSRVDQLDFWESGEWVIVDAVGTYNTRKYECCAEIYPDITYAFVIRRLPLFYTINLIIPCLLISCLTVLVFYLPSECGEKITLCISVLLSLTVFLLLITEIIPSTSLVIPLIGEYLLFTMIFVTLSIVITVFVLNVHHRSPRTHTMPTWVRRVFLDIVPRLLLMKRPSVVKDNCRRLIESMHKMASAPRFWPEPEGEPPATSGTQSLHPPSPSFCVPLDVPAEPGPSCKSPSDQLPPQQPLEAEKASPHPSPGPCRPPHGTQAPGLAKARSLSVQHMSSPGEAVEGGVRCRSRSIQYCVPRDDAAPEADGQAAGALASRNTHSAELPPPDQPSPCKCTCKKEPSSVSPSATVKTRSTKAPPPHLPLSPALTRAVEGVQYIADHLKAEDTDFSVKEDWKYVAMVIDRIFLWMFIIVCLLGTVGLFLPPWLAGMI
nAChR(a4/b2), sequence (P17787 26-502): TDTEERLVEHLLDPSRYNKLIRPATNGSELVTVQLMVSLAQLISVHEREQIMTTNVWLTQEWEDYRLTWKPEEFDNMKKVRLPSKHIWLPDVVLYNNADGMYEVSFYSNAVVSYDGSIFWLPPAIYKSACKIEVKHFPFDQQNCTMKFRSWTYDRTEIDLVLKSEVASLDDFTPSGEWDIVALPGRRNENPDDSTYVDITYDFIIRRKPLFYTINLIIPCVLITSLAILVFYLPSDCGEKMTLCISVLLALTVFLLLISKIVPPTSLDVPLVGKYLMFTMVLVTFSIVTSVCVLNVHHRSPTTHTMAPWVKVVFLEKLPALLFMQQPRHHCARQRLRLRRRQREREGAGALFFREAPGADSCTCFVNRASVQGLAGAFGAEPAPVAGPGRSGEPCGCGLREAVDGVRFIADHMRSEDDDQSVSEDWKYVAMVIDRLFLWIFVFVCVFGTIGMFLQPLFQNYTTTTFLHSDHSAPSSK
From the text: as §1

INSR, sequence (P06213 28-1382): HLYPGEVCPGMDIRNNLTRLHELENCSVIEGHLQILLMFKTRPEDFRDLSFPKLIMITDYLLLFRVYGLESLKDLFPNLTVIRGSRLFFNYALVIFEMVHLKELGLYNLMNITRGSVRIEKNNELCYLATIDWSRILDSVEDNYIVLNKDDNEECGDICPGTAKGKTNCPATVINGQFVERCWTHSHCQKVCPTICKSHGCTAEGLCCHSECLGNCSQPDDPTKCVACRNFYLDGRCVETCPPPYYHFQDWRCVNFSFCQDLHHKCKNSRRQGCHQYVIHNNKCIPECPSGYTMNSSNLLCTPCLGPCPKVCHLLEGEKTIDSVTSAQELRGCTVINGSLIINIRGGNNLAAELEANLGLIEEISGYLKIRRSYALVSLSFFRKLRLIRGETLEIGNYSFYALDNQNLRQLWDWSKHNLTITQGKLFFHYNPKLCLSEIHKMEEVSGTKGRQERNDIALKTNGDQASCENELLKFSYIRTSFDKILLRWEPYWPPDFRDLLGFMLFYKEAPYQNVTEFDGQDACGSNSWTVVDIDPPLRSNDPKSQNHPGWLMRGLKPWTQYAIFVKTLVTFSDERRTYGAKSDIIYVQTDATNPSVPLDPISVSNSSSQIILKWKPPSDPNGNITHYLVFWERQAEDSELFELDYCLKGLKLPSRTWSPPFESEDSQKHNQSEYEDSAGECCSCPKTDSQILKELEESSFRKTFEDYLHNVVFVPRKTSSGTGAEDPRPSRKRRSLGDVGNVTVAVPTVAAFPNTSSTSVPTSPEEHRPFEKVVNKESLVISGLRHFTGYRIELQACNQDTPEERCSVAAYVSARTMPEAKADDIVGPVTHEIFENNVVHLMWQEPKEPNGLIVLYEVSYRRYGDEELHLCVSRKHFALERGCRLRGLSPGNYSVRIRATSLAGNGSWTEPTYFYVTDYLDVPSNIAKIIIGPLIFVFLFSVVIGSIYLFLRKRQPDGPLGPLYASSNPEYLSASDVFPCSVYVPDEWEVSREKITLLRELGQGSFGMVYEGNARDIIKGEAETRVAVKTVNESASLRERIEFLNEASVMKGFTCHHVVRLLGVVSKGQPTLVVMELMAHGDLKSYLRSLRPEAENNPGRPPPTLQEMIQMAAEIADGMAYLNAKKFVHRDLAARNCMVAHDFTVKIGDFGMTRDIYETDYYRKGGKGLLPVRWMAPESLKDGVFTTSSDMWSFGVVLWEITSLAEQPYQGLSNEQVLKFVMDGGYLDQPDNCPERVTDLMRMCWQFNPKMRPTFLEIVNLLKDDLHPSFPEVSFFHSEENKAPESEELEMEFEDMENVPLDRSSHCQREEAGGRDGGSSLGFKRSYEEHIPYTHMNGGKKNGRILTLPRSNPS

## Cn1c(=O)c2c(c3cc(Nc4ccnc(F)c4Cl)ccc31)N[C@@H](C1CC1)C(F)(F)CO2 [compound 17, (S)-10-((3-chloro-2-fluoropyridin-4-yl)amino)-2-cyclopropyl-3,3-difluoro-7-methyl-1,2,3,4-tetrahydro-[1,4]oxazepino[2,3-c]quinolin-6(7H)-one]
[1]; read-out: Max Response
  Emax: 0%
[1]; read-out: RC50 (IC50)
  IC50: > 10 µM
[2]
  Hill: 1.03
[2]; read-out: Max Response
  Emax: 65.2%
[2]; read-out: RC50 (IC50)
  IC50: 4.76 µM
[3]; Table S1
  BCL6 TR-FRET pIC50 mean: 8.2095
[3]; Table S1, read-out: BCL6 TR-FRET IC90 Geometric Mean
  IC90: 0.0567 µM
[3]; geometric mean of at least three replicates, read-out: BCL6 TR-FRET IC50
  IC50: 0.006 µM
[3]; supplement, read-out: BCL6 TR-FRET IC50 Geometric Mean
  IC50: 0.0062 µM
[4]
  IC50: > 10 µM
[4]; OPRK1, cAMP, Antagonist, read-out: Max Response
  Emax: 0.95%
[5]
  EC50: > 10 µM
[5]; CNR1, cAMP, Agonist, read-out: Max Response
  Emax: 27.3%
[6]
  Hill: 1.19
[6]; read-out: Max Response
  Emax: 88.7%
[6]; read-out: RC50 (IC50)
  IC50: 1.6 µM
[7]
  IC50: > 10 µM
[7]; HTR3A, Ion Channel, Blocker, read-out: Max Response
  Emax: 0%
[8]
  IC50: 2.58 µM
[8]; DRD1, cAMP, Antagonist
  Hill: 1.27
[8]; DRD1, cAMP, Antagonist, read-out: Max Response
  Emax: 82.7%
[9]
  IC50: > 10 µM
[9]; CHRM2, cAMP, Antagonist, read-out: Max Response
  Emax: 0%
[10]
  IC50: > 10 µM
[10]; CNR2, cAMP, Antagonist, read-out: Max Response
  Emax: 0%
[11]
  IC50: > 10 µM
[11]; NMDAR (1A/2B), Ion Channel, Blocker, read-out: Max Response
  Emax: 0%
[12]
  IC50: > 10 µM
[12]; CHRM3, Calcium Flux, Antagonist, read-out: Max Response
  Emax: 1.21%
[13]; read-out: Max Response
  Emax: 0%
[13]; read-out: RC50 (IC50)
  IC50: > 10 µM
[14]
  IC50: > 10 µM
[14]; nAChR(a4/b2), Ion Channel, Blocker, read-out: Max Response
  Emax: 0%
